Biological target: T1, Human plasma kallikrein (Homo sapiens, UniProt P03952)
T1 construct: yields a heavy chain (371 amino acids) and a light chain (248 amino acids); purchased Enzyme Research Laboratories
Assay: Plasma Kallikrein Assay
Assay type: biochemical
Conditions: purified Human plasma kallikrein 0.5 nM, substrate Acetyl-K-P-R-AFC, pH 7.4
Experimental: The effectiveness of a compound of the present invention as an inhibitor of plasma kallikrein can be determined using a relevant purified serine protease, and an appropriate synthetic substrate. The rate of hydrolysis of the chromogenic or fluorogenic substrate by the relevant serine protease was measured both in the absence and presence of compounds of the present invention. Assays were conducted at rt or at 37° C. […] A decrease in the rate of fluorescence change in the presence of inhibitor is indicative of enzyme inhibition. Such methods are known to one skilled in the art. The results of this assay are expressed as the half-maximal inhibitory concentrations (IC50), or the inhibitory constant, Ki.
Plasma kallikrein determinations were made in 50 mM HEPES buffer at pH 7.4 containing 150 mM NaCl, 5 mM CaCl2), and 0.1% PEG 8000 (polyethylene glycol; Fisher Scientific). […]
Times required to achieve equilibration between enzyme and inhibitor were determined in control experiments. The reactions were performed under linear progress curve conditions and fluorescence increase measured at 405 Ex/510 Em nm. […] IC50 was determined by inflection point from a four parameter logistic curve fit. Ki was calculated using the Cheng Prusoff equation, Ki=IC50/(1+([S]/Km)).

T1 sequence (P03952 391-638 limits assumed): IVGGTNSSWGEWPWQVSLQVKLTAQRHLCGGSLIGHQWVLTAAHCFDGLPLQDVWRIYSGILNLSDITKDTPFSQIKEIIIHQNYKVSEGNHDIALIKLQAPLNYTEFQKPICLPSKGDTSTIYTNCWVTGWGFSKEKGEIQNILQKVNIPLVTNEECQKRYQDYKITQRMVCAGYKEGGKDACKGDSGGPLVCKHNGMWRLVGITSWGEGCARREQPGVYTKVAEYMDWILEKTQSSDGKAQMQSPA
T1 sequence (P03952 20-390 partner limits assumed): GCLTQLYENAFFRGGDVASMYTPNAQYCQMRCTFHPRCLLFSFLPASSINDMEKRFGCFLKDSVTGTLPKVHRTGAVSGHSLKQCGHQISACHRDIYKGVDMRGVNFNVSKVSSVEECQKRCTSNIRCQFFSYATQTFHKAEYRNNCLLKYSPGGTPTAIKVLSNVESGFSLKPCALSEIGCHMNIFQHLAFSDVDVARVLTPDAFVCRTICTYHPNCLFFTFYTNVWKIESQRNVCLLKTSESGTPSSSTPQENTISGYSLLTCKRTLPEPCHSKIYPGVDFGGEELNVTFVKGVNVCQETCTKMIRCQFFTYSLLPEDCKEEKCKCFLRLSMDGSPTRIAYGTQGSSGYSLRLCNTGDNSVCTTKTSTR

IC50 [nM]	SMILES
35	Cn1cnc(C2CCCN2c2ccc(Cn3cc(NC(=O)c4cncc(-c5c(C(F)F)ccc(Cl)c5F)n4)cn3)cn2)n1 (stereo not shown) [Example 130, 6-(3-Chloro-6-(difluoromethyl)-2-fluorophenyl)-N-(1-((6-(2-(1-methyl-1H-1,2,4-triazol-3-yl)pyrrolidin-1-yl)pyridin-3-yl)methyl)-1H-pyrazol-4-yl)pyrazine-2-carboxamide]
11.8	CC(c1cnc(N(CCO)Cc2ccccn2)nc1)n1cc(NC(=O)c2cncc(-c3c(C(F)F)ccc(Cl)c3F)n2)cn1 (stereo not shown) [Example 85, 6-(3-Chloro-6-(difluoromethyl)-2-fluorophenyl)-N-(1-(1-(2-((2-hydroxyethyl)(pyridin-2-ylmethyl)amino)pyrimidin-5-yl)ethyl)-1H-pyrazol-4-yl)pyrazine-2-carboxamide]
28.3	CN(C)C(=O)[C@@H]1CCCN1c1ccc(Cn2cc(NC(=O)c3cncc(-c4c(C(F)F)ccc(Cl)c4F)n3)cn2)cn1 [Example 125, (S)-6-(3-Chloro-6-(difluoromethyl)-2-fluorophenyl)-N-(1-((6-(2-(dimethylcarbamoyl)pyrrolidin-1-yl)pyridin-3-yl)methyl)-1H-pyrazol-4-yl)pyrazine-2-carboxamide]
1.2	CC(c1cnc(N2CC[C@H]2CN2CCC[C@@H](O)C2)nc1)n1cc(NC(=O)c2cncc(-c3c(C(F)F)ccc(Cl)c3F)n2)cn1 (stereo partly drawn) [Example 177, 6-(3-Chloro-6-(difluoromethyl)-2-fluorophenyl)-N-(1-(1-(2-((S)-2-(((R)-3-hydroxypiperidin-1-yl)methyl)azetidin-1-yl)pyrimidin-5-yl)ethyl)-1H-pyrazol-4-yl)pyrazine-2-carboxamide]
5	O=C(Nc1cnn(Cc2cnc(N3CCC4OCCC43)nc2)c1)c1cncc(-c2c(C(F)F)ccc(Cl)c2F)n1 (stereo not shown) [Example 75, 6-(3-Chloro-6-(difluoromethyl)-2-fluorophenyl)-N-(1-((2-(hexahydro-4H-furo[3,2-b]pyrrol-4-yl)pyrimidin-5-yl)methyl)-1H-pyrazol-4-yl)pyrazine-2-carboxamide]
17.8	O=C(Nc1cnn(Cc2cnc(N3CC4C(C3)C4(F)F)nc2)c1)c1cncc(-c2c(C(F)F)ccc(Cl)c2F)n1 (stereo not shown) [Example 90, 6-(3-Chloro-6-(difluoromethyl)-2-fluorophenyl)-N-(1-((2-(6,6-difluoro-3-azabicyclo[3.1.0]hexan-3-yl)pyrimidin-5-yl)methyl)-1H-pyrazol-4-yl)pyrazine-2-carboxamide]
9.3	O=C(Nc1cnn(Cc2cnc(N3CCCC3CNCC(F)F)nc2)c1)c1cncc(-c2c(C(F)F)ccc(Cl)c2F)n1 (stereo not shown) [Example 157, 6-(3-Chloro-6-(difluoromethyl)-2-fluorophenyl)-N-(1-((2-(2-(((2,2-difluoroethyl)amino)methyl)pyrrolidin-1-yl)pyrimidin-5-yl)methyl)-1H-pyrazol-4-yl)pyrazine-2-carboxamide]
46.2	CC(C)(O)CC1CCCN1c1ncc(Cn2cc(NC(=O)c3cncc(-c4c(C(F)F)ccc(Cl)c4F)n3)cn2)cn1 (single isomer, unassigned) [Example 110, (S or R)-6-(3-Chloro-6-(difluoromethyl)-2-fluorophenyl)-N-(1-((2-(2-(2-hydroxy-2-methylpropyl)pyrrolidin-1-yl)pyrimidin-5-yl)methyl)-1H-pyrazol-4-yl)pyrazine-2-carboxamide]
1.2	CC(c1cnc(N2CC[C@H]2[C@@H](C)N2C[C@@H](O)[C@H](F)C2)nc1)n1cc(NC(=O)c2cncc(-c3c(C(F)F)ccc(Cl)c3F)n2)cn1 (stereo partly drawn) [Example 189, 6-(3-Chloro-6-(difluoromethyl)-2-fluorophenyl)-N-(1-(1-(2-((S)-2-((R)-1-((3R,4R)-3-fluoro-4-hydroxypyrrolidin-1-yl)ethyl)azetidin-1-yl)pyrimidin-5-yl)ethyl)-1H-pyrazol-4-yl)pyrazine-2-carboxamide]
1.4	CC(c1cnc(N2CC[C@H]2CN2CCCC(C)(O)C2)nc1)n1cc(NC(=O)c2cncc(-c3c(C(F)F)ccc(Cl)c3F)n2)cn1 (stereo partly drawn) [Example 176, 6-(3-Chloro-6-(difluoromethyl)-2-fluorophenyl)-N-(1-(1-(2-((2S)-2-((3-hydroxy-3-methylpiperidin-1-yl)methyl)azetidin-1-yl)pyrimidin-5-yl)ethyl)-1H-pyrazol-4-yl)pyrazine-2-carboxamide]
32.8	NC(=O)C1CCCN(c2ccc(Cn3cc(NC(=O)c4cncc(-c5c(C(F)F)ccc(Cl)c5F)n4)cn3)cn2)C1 (stereo not shown) [Example 129, N-(1-((6-(3-Carbamoylpiperidin-1-yl)pyridin-3-yl)methyl)-1H-pyrazol-4-yl)-6-(3-chloro-6-(difluoromethyl)-2-fluorophenyl)pyrazine-2-carboxamide]
31.3	O=C(Nc1cnn(Cc2cnc(N3CCC4OCCC43)nc2)c1)c1cncc(-c2c(C(F)F)ccc(Cl)c2F)n1 (single isomer, unassigned) [Example 103, 6-(3-Chloro-6-(difluoromethyl)-2-fluorophenyl)-N-(1-((2-((3aS,6aS or 3aR,6aR)-hexahydro-4H-furo[3,2-b]pyrrol-4-yl)pyrimidin-5-yl)methyl)-1H-pyrazol-4-yl)pyrazine-2-carboxamide]
13.3	C[C@@H](c1cnc(N2C[C@@H]3C[C@@H]3[C@@H]2CO)nc1)n1cc(NC(=O)c2cncc(-c3c(C(F)F)ccc(Cl)c3F)n2)cn1 (single isomer, unassigned) [Example 86, 6-(3-Chloro-6-(difluoromethyl)-2-fluorophenyl)-N-(1-((S or R)-1-(2-((1S,2R,5R or 1R,2S,5S)-2-(hydroxymethyl)-3-azabicyclo[3.1.0]hexan-3-yl)pyrimidin-5-yl)ethyl)-1H-pyrazol-4-yl)pyrazine-2-carboxamide]
4.2	CC(c1cnc(N2CC[C@H]2CN[C@@H]2CCC[C@H]2O)nc1)n1cc(NC(=O)c2cncc(-c3c(C(F)F)ccc(Cl)c3F)n2)cn1 (stereo partly drawn) [Example 181, 6-(3-Chloro-6-(difluoromethyl)-2-fluorophenyl)-N-(1-(1-(2-((S)-2-((((1R,2R)-2-hydroxycyclopentyl)amino)methyl)azetidin-1-yl)pyrimidin-5-yl)ethyl)-1H-pyrazol-4-yl)pyrazine-2-carboxamide]
43.5	O=C(Nc1cnn(Cc2cnc(N3CCCC3C3(O)CC3)nc2)c1)c1cncc(-c2c(C(F)F)ccc(Cl)c2F)n1 (stereo not shown) [Example 107, 6-(3-Chloro-6-(difluoromethyl)-2-fluorophenyl)-N-(1-((2-(2-(1-hydroxycyclopropyl)pyrrolidin-1-yl)pyrimidin-5-yl)methyl)-1H-pyrazol-4-yl)pyrazine-2-carboxamide]
20.6	CC1CCN1c1ncc(C(C)n2cc(NC(=O)c3cncc(-c4c(C(F)F)ccc(Cl)c4F)n3)cn2)cn1 (racemic) [Example 100, 6-(3-Chloro-6-(difluoromethyl)-2-fluorophenyl)-N-(1-((R and S)-1-(2-((R and S)-2-methylazetidin-1-yl)pyrimidin-5-yl)ethyl)-1H-pyrazol-4-yl)pyrazine-2-carboxamide]
4.9	CC(c1cnc(N2CC[C@H]2CN2CC(F)C2)nc1)n1cc(NC(=O)c2cncc(-c3c(C(F)F)ccc(Cl)c3F)n2)cn1 (stereo partly drawn) [Example 171, 6-(3-Chloro-6-(difluoromethyl)-2-fluorophenyl)-N-(1-(1-(2-((S)-2-((3-fluoroazetidin-1-yl)methyl)azetidin-1-yl)pyrimidin-5-yl)ethyl)-1H-pyrazol-4-yl)pyrazine-2-carboxamide]
8.1	CC(c1cnc(N2CC[C@H]2[C@@H](C)N[C@@H]2CCC[C@H]2O)nc1)n1cc(NC(=O)c2cncc(-c3c(C(F)F)ccc(Cl)c3F)n2)cn1 (stereo partly drawn) [Example 193, 6-(3-Chloro-6-(difluoromethyl)-2-fluorophenyl)-N-(1-(1-(2-((S)-2-((R)-1-(((1R,2R)-2-hydroxycyclopentyl)amino)ethyl)azetidin-1-yl)pyrimidin-5-yl)ethyl)-1H-pyrazol-4-yl)pyrazine-2-carboxamide]
26.5	CC(c1cnc(N2CC3CC3C2)nc1)n1cc(NC(=O)c2nc(-c3c(C(F)F)ccc(Cl)c3F)cnc2N)cn1 (single isomer, unassigned) [Example 33, N-(1-((1S or 1R)-1-(2-(3-azabicyclo[3.1.0]hexan-3-yl)pyrimidin-5-yl)ethyl)-1H-pyrazol-4-yl)-3-amino-6-(3-chloro-6-(difluoromethyl)-2-fluorophenyl)pyrazine-2-carboxamide]
15.4	O=C(Nc1cnn(Cc2cnc(N3CCC3)nc2)c1)c1nc(-c2c(C(F)F)ccc(Cl)c2F)cnc1O [Example 20, N-(1-((2-(Azetidin-1-yl)pyrimidin-5-yl)methyl)-1H-pyrazol-4-yl)-6-(3-chloro-6-(difluoromethyl)-2-fluorophenyl)-3-hydroxypyrazine-2-carboxamide]
4.1	CC(c1cnc(N2CC[C@H]2[C@@H](C)NCC2(O)CC2)nc1)n1cc(NC(=O)c2cncc(-c3c(C(F)F)ccc(Cl)c3F)n2)cn1 (stereo partly drawn) [Example 192, 6-(3-Chloro-6-(difluoromethyl)-2-fluorophenyl)-N-(1-(1-(2-((S)-2-((R)-1-(((1-hydroxycyclopropyl)methyl)amino)ethyl)azetidin-1-yl)pyrimidin-5-yl)ethyl)-1H-pyrazol-4-yl)pyrazine-2-carboxamide]
189	CC(c1cnc(N2CC3CC3C2C#N)nc1)n1cc(NC(=O)c2cncc(-c3c(C(F)F)ccc(Cl)c3F)n2)cn1 (single isomer, unassigned) [Example 198]

— patent US20230416227A1, “PLASMA KALLIKREIN INHIBITORS” (Merck Sharp & Dohme LLC, priority 2020, published 2023)
